In patent US11643437B2, “Tandem repeat cancer-targeting peptides for molecular conjugation or engineering and uses thereof in cancer theranostics” (Chang Gung Memorial Hospital, priority 2020, dated 2023):
Values belong to the molecule of their own block, whether it stands above or below them. Where no end group is shown, it is not given here.

Legend:
[1] = target: peptide-binding domain of GRP78 (GRP78-PBD, amino acids 421-639) (Homo sapiens, UniProt P11021); assay: Surface plasmon resonance, GRP78-PBD binding to chip-bound N-terminal biotin-labeled CTPs/TR-CTPs; settings: N-terminal GGGGS extension, peptide immobilized on streptavidin chip; for Kd: read-out: Dissociation constant KD
Chain of peptide-binding domain of GRP78 (GRP78-PBD, amino acids 421-639) (P11021 421-639): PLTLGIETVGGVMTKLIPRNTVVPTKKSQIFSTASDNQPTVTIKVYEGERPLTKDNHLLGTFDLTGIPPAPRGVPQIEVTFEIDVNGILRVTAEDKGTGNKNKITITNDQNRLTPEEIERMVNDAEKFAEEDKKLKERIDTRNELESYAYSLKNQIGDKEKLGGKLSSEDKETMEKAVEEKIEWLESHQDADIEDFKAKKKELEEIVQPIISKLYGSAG
Excerpt: Biotin-labeled TR-CTPs and CTPs were synthesized (Biotools Co., Ltd, Taiwan) to evaluate kinetics of binding to GRP78 by surface plasmon resonance. TR-CTPs and CTPs were extended by five amino acids (GGGGS; SEQ ID NO: 9) at their N-termini. The N-termini were labeled with a single biotin molecule per TR-CTP/CTP through an aminohexanoic acid linkage.
Also biotin labeled were two negative control peptides, in which the L-Leu residues within the sequences of F4P6-TR-CTP and F4P13-TR-CTP were replaced with D-Leu residues (dF4P6 and dF4P13, respectively).
(§1) Streptavidin was immobilized to a sensor chip (CMS; GE Healthcare) having a matrix of carboxymethylated dextran covalently attached to a gold surface using a standard amine-coupling method according to established procedures (GE Healthcare). The biotin-labeled TR-CTPs were immobilized on the chip by flowing them over the chip at a flow rate of 5 μl/min using HBS-P+ (GE Healthcare) as the running buffer.
(§2) Sensor chips were regenerated by washing the chip surface for 30 s with glycine buffer (10 mM; pH 11.5). Chips were reused after two chip regeneration cycles followed by a 120 s wash with running buffer.

GRP78-PBD [2] = target: T1, GRP78-PBD (Homo sapiens, UniProt P11021); assay: Surface plasmon resonance, GRP78-PBD binding to chip-bound C-terminal biotin-labeled CTPs/TR-CTPs; settings: C-terminal GGGGSK extension, biotin on C-terminal lysine; for Kd: read-out: Dissociation constant KD
T1 sequence (P11021 421-639): as above
Protocol: as §1, §2
The P13-series peptides described above in Example 1 were also biotin labeled after extending them at their C-termini with the sequence GGGGSK (SEQ ID NO: 10). Biotin was conjugated to the C-terminal lysine residue using standard techniques. Binding affinities of GRP78-PBD for the sensor chip-bound peptides were determined as described above in Example 2.

GRP78-PBD [3] = target: T1, GRP78-PBD; assay: Surface plasmon resonance, GRP78-PBD binding to F4P6-BsAb amine-coupled to sensor chip; settings: F4P6-BsAb directly coupled to sensor chip by amine-coupling
Protocol: as §1, §2
Following expression and purification of F4P6-BsAb, the kinetics of GRP78-PDB binding to it was evaluated by surface plasmon resonance as described in Example 1 above, differing in that the F4P6-BsAb was directly coupled to the CMS sensor chip by amine-coupling.

[4] = system: TOV21G ovarian cancer target cells; assay: PBMC-mediated cell killing, xCELLigence RTCA, TOV21G; format: cell-based; settings: 12.5 nM antibody, effector-to-target ratio 10:1, 40 h incubation
Protocol: (§3) The ability of bispecific antibody-like construct F4P6-BsAb to induce cell killing by peripheral blood mononuclear cells (PBMC) was tested on TOV21G ovarian cancer target cells and N87 gastric cancer target cells.
(§4) Target cells were seeded at 2×10^4 cells per well of a 96-well electronic microtiter plate (“E-plate”; ACEA Biosciences, Inc.) and allowed to adhere for 2 h. PBMC effector cells, PBMC effector cells plus F4P6-BsAb, and PBMC effector cells plus Ctrl-BsAb that lacks the […] sequence were added to reach a final effector-to-target ratio of 10:1. The concentration of F4P6-BsAb and Ctrl-BsAb was 12.5 nM. Data was gathered and quantified using an xCELLigence Real-Time Cell Analysis system (“RTCA”; ACEA Biosciences, Inc.) as directed by the manufacturer.

[5] = system: N87 gastric cancer target cells; assay: PBMC-mediated cell killing, xCELLigence RTCA, N87; format: cell-based; settings: 12.5 nM antibody, effector-to-target ratio 10:1, 90 h incubation
Protocol: as §3, §4

Molecule: RLLDTNRPFLFY [P13-CTP, reference compound]
- Association rate Kon [1]: 1.2 × 10^3 M^−1S^−1
- Dissociation rate Koff [1]: 3.4×10^−3 S^−1
- Association rate Kon (GRP78-PBD [2]): 9.7 × 10^2 M^−1S^−1
- Dissociation rate Koff (GRP78-PBD [2]): 2.0 × 10^−3 S^−1
- Kd (GRP78-PBD [2]): 2700 nM

Molecule: RPFLFPFLFY [F4P13-TR-CTP]
- Association rate Kon [1]: 7.9 × 10^2 M^−1S^−1
- Dissociation rate Koff [1]: 1.7×10^−3 S^−1
- Kd [1]: 2100 nM
- Association rate Kon (GRP78-PBD [2]): 1.8 × 10^3 M^−1S^−1
- Dissociation rate Koff (GRP78-PBD [2]): 1.2 × 10^−3 S^−1
- Kd (GRP78-PBD [2]): 660 nM

B1: F4P6-BsAb: bispecific antibody-like knob-and-hole heterodimer, anti-CD3 scFv plus F4P6-TR-CTP on both Fc C-termini, SEQ ID NO 12 and 14 (protein)
chain 1: MGGRRVRWEVYISRAGYVNRQIAWRRHHRSATMGWSLILLFLVAVATRVLSQVQLVQSGAEVKKPGASVKVSCKASGYTFTRYTMHWVRQAPGQGLEWIGYINPSRGYTNYNQKFKDKATLTTDKSISTAYMELSRLRSDDTAVYYCARYYDDHYTLDYWGQGTLVTVSSGGGGSGGGGSGGGGSEIVLTQSPATLSLSPGERATLSCSASSSVSYMNWYQQKPGQAPRRWIYDTSKLASGIPARFSGSGSGTSYTLTISSLEPEDFAVYYCQQWSSNPFTFGQGTKVEIKRSGGGGSGGGGSGGGGSTGTHTCPPCPAPELAGAPSVFLFPPKPKDTLMISRTPEVTCVVVDVSHEDPEVKFNWYVDGVEVHNAKTKPREEQYNSTYRVVSVLTVLHQDWLNGKEYKCKVSNKALPAPIEKTISKAKGQPREPQVCTLPPSREEMTKNQVSLSCAVKGFYPSDIAVEWESNGQPENNYKTTPPVLDSDGSFFLVSKLTVDKSRWQQGNVFSCSVMHEALHNHYTQKSLSLSPGKGGGGSGGGGSGGGGSRPFLPFLPY
chain 2: MGGRRVRWEVYISRAGYVNRQIAWRRHHRSATMGWSLILLFLVAVATRVLSTGTHTCPPCPAPELAGAPSVFLFPPKPKDTLMISRTPEVTCVVVDVSHEDPEVKFNWYVDGVEVHNAKTKPREEQYNSTYRVVSVLTVLHQDWLNGKEYKCKVSNKALPAPIEKTISKAKGQPREPQVYTLPPCREEMTKNQVSLWCLVKGFYPSDIAVEWESNGQPENNYKTTPPVLDSDGSFFLYSKLTVDKSRWQQGNVFSCSVMHEALHNHYTQKSLSLSPGKGGGGSGGGGSGGGGSRPFLPFLPY
- Kd (GRP78-PBD [3]): 1100 nM
- Koff value (GRP78-PBD [3]): 9.4×10^−4 S^−1
- PBMC mediated lysis of TOV21G cells [4]: 22%
- PBMC mediated lysis of N87 cells [5]: 15%

Second part, the molecule after the results:

- Association rate Kon [1]: 1.5 × 10^3 M^−1S^−1
- Dissociation rate Koff [1]: 3.0×10^−3 S^−1
- Kd [1]: 1900 nM
Molecule: RLLDTNRPFLPY [P6-CTP, reference compound]

- Association rate Kon [1]: 1.9 × 10^3 M^−1S^−1
- Dissociation rate Koff [1]: 1.2×10^−3 S^−1
- Kd [1]: 610 nM
Molecule: RPFLFPFLFYRPFLFPFLFY [F5P13-TR-CTP]

- Association rate Kon [1]: 2.3 × 10^3 M^−1S^−1
- Dissociation rate Koff [1]: 2.8×10^−3 S^−1
- Kd [1]: 1200 nM
Molecule: RPFLPFLPY [F4P6-TR-CTP]

- Association rate Kon [1]: 8.9 × 10^2 M^−1S^−1
- Dissociation rate Koff [1]: 9.1×10^−4 S^−1
- Kd [1]: 1000 nM
Molecule: RPFLPFLPYRPFLPFLPY [F5P6-TR-CTP]
